The text below walks through data of patent US10981888B2, “Preparation method for tricyclic compounds” (BAYER CROPSCIENCE AKTIENGESELLSCHAFT, priority 2016, dated 2021).

The nature of this data set: determination of log P values by HPLC on a reversed-phase column (C18), EEC Directive 79/831 Annex V.A8. It is filed as physicochemical. On the procedure: ^a) Note regarding the determination of the log P values and mass detection: The determination of the given log P values was carried out in accordance with EEC Directive 79/831 Annex V.A8 by HPLC (High Performance Liquid Chromatography) on a reversed-phase column (C18). […] Mass detection is via an Agilent MSD system. […] Mass detection is via an Agilent MSD system. The mass stated is the peak of the molecular ion+hydrogen [M+H]^+ (molecular ion=sum of the masses of the most abundant natural isotopes of which the molecule consists). ^c) GC/MS (gas chromatography/mass spectrometry) on dimethylsilicone phase. 10 m DB-1, ID=0.18 mm, film thickness=0.4 μm; injector: 250° C., carrier gas flow rate: […] helium; detector: MSD: 280° C., FID: 320° C.; oven temperature: 50° C. (1 minute), 50° C.-320° C. ([…], 40° C./min), 320° C. (6.75 minutes); Kovacs Indices calibrated with alkane mixture.

Setting [1] is: reversed-phase C18 HPLC column (Zorbax Eclipse Plus C18); HPLC-MS method a): Zorbax Eclipse Plus C18, acetonitrile (0.1% formic acid) / water (0.09% formic acid), gradient 10% to 95% acetonitrile, 55° C., read-out: log P.

Where two headings read alike, the source gives them in different places.

Consider `FC(F)(F)C(F)(c1cc(Cl)c(-n2cccn2)c(Cl)c1)C(F)(F)F` [1-[2,6-dichloro-4-(1,1,1,2,3,3,3-heptafluoropropan-2-yl)phenyl]-1H-pyrazole], for which the chromatographic logP under setting [1] amounted to 4.22. Take `FC(F)(F)C(F)(c1cc(Cl)c(-n2cc(I)cn2)c(Cl)c1)C(F)(F)F` [1-[2,6-dichloro-4-(1,1,1,2,3,3,3-heptafluoropropan-2-yl)phenyl]-4-iodo-1H-pyrazole]: the chromatographic logP under setting [1] was 5.17.

In the case of `FC(F)(F)c1cc(C(F)(C(F)(F)F)C(F)(F)F)cc(Br)c1-n1cccn1` [1-[2-bromo-4-(1,1,1,2,3,3,3-heptafluoropropan-2-yl)-6-(trifluoromethyl)phenyl]-1H-pyrazole], the chromatographic logP under setting [1] was found to be 4.42. On the same count and under the same terms, with `FC(F)(F)c1cc(C(F)(C(F)(F)F)C(F)(F)F)cc(Br)c1-n1cc(I)cn1` [1-[2-bromo-4-(1,1,1,2,3,3,3-heptafluoropropan-2-yl)-6-(trifluoromethyl)phenyl]-4-iodo-1H-pyrazole] the figure was 5.22; with `FC(F)(F)c1cc(C(F)(C(F)(F)F)C(F)(F)F)cc(Cl)c1-n1cccn1` [1-[2-chloro-4-(1,1,1,2,3,3,3-heptafluoropropan-2-yl)-6-(trifluoromethyl)phenyl]-1H-pyrazole], 4.38. For `FC(F)(F)c1cc(C(F)(C(F)(F)F)C(F)(F)F)cc(Cl)c1-n1cc(I)cn1` [1-[2-chloro-4-(1,1,1,2,3,3,3-heptafluoropropan-2-yl)-6-(trifluoromethyl)phenyl]-4-iodo-1H-pyrazole], under setting [1], the chromatographic logP turned out to be 5.19. Same read-out and setting: then `FC(F)Oc1cc(C(F)(C(F)(F)F)C(F)(F)F)cc(Cl)c1-n1cccn1` [1-[2-chloro-6-(difluoromethoxy)-4-(1,1,1,2,3,3,3-heptafluoropropan-2-yl)phenyl]-1H-pyrazole], with 4.04; and `FC(F)Oc1cc(C(F)(C(F)(F)F)C(F)(F)F)cc(Cl)c1-n1cc(I)cn1` [1-[2-chloro-6-(difluoromethoxy)-4-(1,1,1,2,3,3,3-heptafluoropropan-2-yl)phenyl]-4-iodo-1H-pyrazole], with 4.82; and `Cc1cc(C(F)(C(F)(F)F)C(F)(F)F)cc(C)c1-n1cccn1` [1-[4-(1,1,1,2,3,3,3-heptafluoropropan-2-yl)-2,6-dimethylphenyl]-1H-pyrazole], with 4.3. For `Cc1cc(C(F)(C(F)(F)F)C(F)(F)F)cc(C)c1-n1cc(I)cn1` [1-[4-(1,1,1,2,3,3,3-heptafluoropropan-2-yl)-2,6-dimethylphenyl]-4-iodo-1H-pyrazole], the chromatographic logP under setting [1] was 5.2. The same measure, in the same setting: with `Cc1cc(C(F)(C(F)(F)F)C(F)(F)F)cc(C(F)(F)F)c1-n1cccn1` [1-[4-(1,1,1,2,3,3,3-heptafluoropropan-2-yl)-2-methyl-6-(trifluoromethyl)phenyl]-1H-pyrazole] the figure was 4.4. As for `CN(C(=O)c1cc(-c2cnn(-c3c(Cl)cc(C(F)(C(F)(F)F)C(F)(F)F)cc3OC(F)(F)F)c2)cnc1Cl)C1CC1` [2-Chloro-5-{1-[2-chloro-4-(1,1,1,2,3,3,3-heptafluoropropan-2-yl)-6-(trifluoromethoxy)phenyl]-1H-pyrazol-4-yl}-N-cyclopropyl-N-methylnicotinamide], under setting [1], the chromatographic logP came out at 4.56. For `CN(C(=O)c1cc(-c2cnn(-c3c(Cl)cc(C(F)(C(F)(F)F)C(F)(F)F)cc3C(F)(F)F)c2)cnc1Cl)C1CC1` [2-Chloro-5-{1-[2-chloro-4-(1,1,1,2,3,3,3-heptafluoropropan-2-yl)-6-(trifluoromethyl)phenyl]-1H-pyrazol-4-yl}-N-cyclopropyl-N-methylnicotinamide], under setting [1], the chromatographic logP turned out to be 4.46. Regarding `O=C(NC1CC1)c1cc(-c2cnn(-c3c(Cl)cc(C(F)(C(F)(F)F)C(F)(F)F)cc3C(F)(F)F)c2)cnc1Cl` [2-Chloro-5-{1-[2-chloro-4-(1,1,1,2,3,3,3-heptafluoropropan-2-yl)-6-(trifluoromethyl)phenyl]-1H-pyrazol-4-yl}-N-cyclopropylnicotinamide], the chromatographic logP under setting [1] is 4.

As for `N#CC1(NC(=O)c2cc(-c3cnn(-c4c(Cl)cc(C(F)(C(F)(F)F)C(F)(F)F)cc4Cl)c3)cnc2Cl)CC1` [2-Chloro-N-(1-cyanocyclopropyl)-5-{1-[2,6-dichloro-4-(1,1,1,2,3,3,3-heptafluoropropan-2-yl)phenyl]-1H-pyrazol-4-yl}nicotinamide], the chromatographic logP under setting [1] is 3.81. In the case of `Cc1cc(C(F)(C(F)(F)F)C(F)(F)F)cc(C)c1-n1cc(-c2cnc(Cl)c(C(=O)NC3(C#N)CC3)c2)cn1` [2-Chloro-N-(1-cyanocyclopropyl)-5-{1-[4-(1,1,1,2,3,3,3-heptafluoropropan-2-yl)-2,6-dimethylphenyl]-1H-pyrazol-4-yl}nicotinamide], the chromatographic logP under setting [1] was found to be 3.87. In the case of `CN(C(=O)c1cc(-c2cnn(-c3c(Cl)cc(C(F)(C(F)(F)F)C(F)(F)F)cc3Cl)c2)cnc1Cl)C1CC1` [2-Chloro-N-cyclopropyl-5-{1-[2,6-dichloro-4-(1,1,1,2,3,3,3-heptafluoropropan-2-yl)phenyl]-1H-pyrazol-4-yl}-N-methylnicotinamide], the chromatographic logP under setting [1] worked out at 4.36.

Regarding `O=C(NC1CC1)c1cc(-c2cnn(-c3c(Cl)cc(C(F)(C(F)(F)F)C(F)(F)F)cc3OC(F)(F)F)c2)cnc1Cl` [2-chloro-5-{1-[2-chloro-4-(1,1,1,2,3,3,3-heptafluoropropan-2-yl)-6-(trifluoromethoxy)phenyl]-1H-pyrazol-4-yl}-N-cyclopropylnicotinamide], under setting [1], the chromatographic logP was 4.28. On to `CN(C(=O)c1cc(-c2cnn(-c3c(Cl)cc(C(F)(C(F)(F)F)C(F)(F)F)cc3Cl)c2)cnc1Cl)C1(C#N)CC1` [2-chloro-N-(1-cyanocyclopropyl)-5-{1-[2,6-dichloro-4-(1,1,1,2,3,3,3-heptafluoropropan-2-yl)phenyl]-1H-pyrazol-4-yl}-N-methylnicotinamide], for which the chromatographic logP under setting [1] is 4.31.

Turning to `CC1(C)OB(c2cnc(Cl)c(C(=O)NC3CC3)c2)OC1(C)C` [2-chloro-N-cyclopropyl-5-(4,4,5,5-tetramethyl-1,3,2-dioxaborolan-2-yl)nicotinamide], the chromatographic logP worked out at 0.9. Turning to `FC(F)(F)C(F)(c1cc(Cl)c(-n2cc(Br)cn2)c(Cl)c1)C(F)(F)F` [4-bromo-1-[2,6-dichloro-4-(1,1,1,2,3,3,3-heptafluoropropan-2-yl)phenyl]-1H-pyrazole], the chromatographic logP under setting [1] was 5.07. Take `O=C(NC1CC1)c1cc(-c2cnn(-c3c(Br)cc(C(F)(C(F)(F)F)C(F)(F)F)cc3OC(F)(F)F)c2)cnc1Cl` [5-{1-[2-Bromo-4-(1,1,1,2,3,3,3-heptafluoropropan-2-yl)-6-(trifluoromethoxy)phenyl]-1H-pyrazol-4-yl}-2-chloro-N-cyclopropylnicotinamide]: the chromatographic logP under setting [1] worked out at 4.25. With `CN(C(=O)c1cc(-c2cnn(-c3c(Br)cc(C(F)(C(F)(F)F)C(F)(F)F)cc3C(F)(F)F)c2)cnc1Cl)C1CC1` [5-{1-[2-bromo-4-(1,1,1,2,3,3,3-heptafluoropropan-2-yl)-6-(trifluoromethyl)phenyl]-1H-pyrazol-4-yl}-2-chloro-N-cyclopropyl-N-methylnicotinamide], the chromatographic logP under setting [1] is 4.28.
